Measurements as given in patent US7838674B2, “Tetracyclic lactame derivatives” (Novartis AG, priority 2007, dated 2010).
Where a name gives a salt, the structure may show the parent alone.

Molecular target: human MK2 (Homo sapiens, UniProt P49137)
Experiment: MAPKAPK2 kinase assay (TR-FRET, Hsp27 peptide substrate)

Sequence of human MK2 (P49137 whole entry): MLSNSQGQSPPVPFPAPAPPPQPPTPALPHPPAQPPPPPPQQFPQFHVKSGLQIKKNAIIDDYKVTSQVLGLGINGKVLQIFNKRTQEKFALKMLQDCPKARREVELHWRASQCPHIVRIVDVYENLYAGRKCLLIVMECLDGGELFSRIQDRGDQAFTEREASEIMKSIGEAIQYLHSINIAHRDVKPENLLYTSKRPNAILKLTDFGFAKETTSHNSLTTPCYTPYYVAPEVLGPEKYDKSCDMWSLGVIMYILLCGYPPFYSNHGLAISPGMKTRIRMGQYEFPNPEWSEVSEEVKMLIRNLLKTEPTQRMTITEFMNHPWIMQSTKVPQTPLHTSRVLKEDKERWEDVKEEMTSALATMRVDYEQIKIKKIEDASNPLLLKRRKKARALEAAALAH

SMILES	IC50 [nM]
N#Cc1cc(-c2cc3c(cn2)CCc2c-3[nH]c3c2C(=O)NCC32CC2)ccc1OCCN1CCOCC1 [Example 305, 2-(2-Morpholin-4-yl-ethoxy)-5-(7-oxo-10-spirocyclopropyl-6,7,8,9,10,11-hexahydro-5H-3,8,11-triaza-benzo[a]fluoren-2-yl)-benzonitrile]	12
O=C1NC2(CNC2)Cc2[nH]c3c(c21)CCc1cnc(-c2cccc(F)c2)nc1-3 [Example 26, 2-(3-Amino-azetidin-3-ylmethyl)-8-(3-fluoro-phenyl)-4,5-dihydro-1H-1,7,9-triaza-cyclopenta[a]naphthalene-3-carboxylic acid lactam hydrochloride]	15
Cn1c2c(c3c1-c1nc(-c4cccc(F)c4)ncc1CC3)C(=O)NC1(CNC1)C2 [Example 27, 2-(3-Amino-azetidin-3-ylmethyl)-8-(3-fluoro-phenyl)-1-methyl-4,5-dihydro-1H-1,7,9-triaza-cyclopenta[a]naphthalene-3-carboxylic acid lactam hydrochloride]	43
COc1ccc(-c2ncc3c(n2)-c2[nH]c4c(c2CC3)C(=O)NC2(CNC2)C4)cc1 [Example 18, 2-(3-Amino-azetidin-3-ylmethyl)-8-(4-methoxy-phenyl)-4,5-dihydro-1H-1,7,9-triaza-cyclopenta[a]naphthalene-3-carboxylic acid lactame hydrochloride]	18
C[C@H](NC(=O)c1cccc(-c2cc3c(cn2)CCc2c-3[nH]c3c2C(=O)NC2(CC2)C3)c1)c1ccccc1 [Example 275]	20
CN1CC2(CNC(=O)c3c2[nH]c2c3CCc3cnc(-c4ccc(C(F)(F)F)nc4)cc3-2)C1 [Example 168, 2-(3-Aminomethyl-1-methyl-azetidin-3-yl)-8-(6-trifluoromethyl-pyridin-3-yl)-4,5-dihydro-1H-pyrrolo[2,3-f]isoquinoline-3-carboxylic acid lactam]	14

The remaining lines, values ahead:

IC50 [nM]	SMILES
42	O=C1NC2(CCC2)Cc2[nH]c3c(c21)CCc1cnc(-c2cncc(OC4CCOCC4)c2)cc1-3 [Example 109, 2-(1-Amino-cyclobutylmethyl)-8-[5-(tetrahydro-pyran-4-yloxy)-pyridin-3-yl]-4,5-dihydro-1H-pyrrolo[2,3-f]isoquinoline-3-carboxylic acid lactam]
16	COc1ccc(CNC(=O)c2cccc(-c3cc4c(cn3)CCc3c-4[nH]c4c3C(=O)NC3(CC3)C4)c2)cn1 [Example 274]
51	O=C1NC2(CC2)Cc2[nH]c3c(c21)CCc1cnc(-c2cccnc2)cc1-3 [Example 93, 2-(1-Amino-cyclopropylmethyl)-8-pyridin-3-yl-4,5-dihydro-1H-pyrrolo[2,3-f]isoquinoline-3-carboxylic acid lactam]
100	O=C1NC2(CC2)Cc2[nH]c3c(c21)CCc1cnc(-c2ccc(Oc4ccc(F)cc4F)nc2)cc1-3 [Example 95, 2-(1-Amino-cyclopropylmethyl)-8-[6-(2,4-difluoro-phenoxy)-pyridin-3-yl]-4,5-dihydro-1H-pyrrolo[2,3-f]isoquinoline-3-carboxylic acid lactam]
39	Cc1cncc(-c2cc3c(cn2)CCc2c-3[nH]c3c2C(=O)NC2(CC2)C3)c1 [Example 84, 2-(1-Amino-cyclopropylmethyl)-8-(5-methyl-pyridin-3-yl)-4,5-dihydro-1H-pyrrolo[2,3-f]isoquinoline-3-carboxylic acid lactam]
53	O=C1NC2(CC2)Cc2[nH]c3c(c21)CCc1cnc(-c2cncc(OC4CCOCC4)c2)cc1-3 [Example 94, 2-(1-Amino-cyclopropylmethyl)-8-[5-(tetrahydro-pyran-4-yloxy)-pyridin-3-yl]-4,5-dihydro-1H-pyrrolo[2,3-f]isoquinoline-3-carboxylic acid lactam]
